Assay results published in paper PMC12806454 (Quantitative Biology, 2024).
pIC50: −log10 of the molar value.

Experiments:
[1] = rat, in vivo, iv; cited from earlier work
[2] = target: Mpro of HKU1 (Human coronavirus HKU1, UniProt P0C6X2); assay: biochemical
[3] = target: Mpro of NL63 (Human coronavirus NL63, UniProt P0C6X5); assay: biochemical
[4] = target: Mpro of OC43 (Human coronavirus OC43, UniProt P0C6X6); assay: biochemical
[5] = target: Mpro of MERS (Middle East respiratory syndrome-related coronavirus, UniProt K9N7C7); assay: biochemical
Sequence of Mpro of MERS (K9N7C7 3248-3553 limits assumed): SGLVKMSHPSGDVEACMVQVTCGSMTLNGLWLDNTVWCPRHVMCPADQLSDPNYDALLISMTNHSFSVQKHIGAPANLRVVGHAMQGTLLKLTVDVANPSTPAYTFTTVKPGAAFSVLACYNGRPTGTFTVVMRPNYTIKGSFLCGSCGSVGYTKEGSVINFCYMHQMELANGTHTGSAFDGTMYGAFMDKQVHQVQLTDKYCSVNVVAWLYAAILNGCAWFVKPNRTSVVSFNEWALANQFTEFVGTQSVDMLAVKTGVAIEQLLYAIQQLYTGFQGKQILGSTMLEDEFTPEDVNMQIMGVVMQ

[6] = target: Mpro of 229E (Human coronavirus 229E, UniProt P0C6X1); assay: biochemical
Sequence of Mpro of 229E (P0C6X1 2966-3267): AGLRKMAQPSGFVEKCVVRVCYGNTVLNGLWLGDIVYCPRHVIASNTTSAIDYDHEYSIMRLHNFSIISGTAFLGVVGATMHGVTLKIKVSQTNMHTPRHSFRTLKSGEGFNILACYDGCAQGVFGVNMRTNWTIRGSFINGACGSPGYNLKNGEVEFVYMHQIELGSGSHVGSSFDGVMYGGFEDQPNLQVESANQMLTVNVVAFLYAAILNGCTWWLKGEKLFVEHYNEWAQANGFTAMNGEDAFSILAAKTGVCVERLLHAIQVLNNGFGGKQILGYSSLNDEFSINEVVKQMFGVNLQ

[7] = target: Mpro of SARS-CoV-1 (Severe acute respiratory syndrome coronavirus, UniProt P0C6X7); assay: biochemical

Sequence of Mpro of NL63 (P0C6X5 2940-3242): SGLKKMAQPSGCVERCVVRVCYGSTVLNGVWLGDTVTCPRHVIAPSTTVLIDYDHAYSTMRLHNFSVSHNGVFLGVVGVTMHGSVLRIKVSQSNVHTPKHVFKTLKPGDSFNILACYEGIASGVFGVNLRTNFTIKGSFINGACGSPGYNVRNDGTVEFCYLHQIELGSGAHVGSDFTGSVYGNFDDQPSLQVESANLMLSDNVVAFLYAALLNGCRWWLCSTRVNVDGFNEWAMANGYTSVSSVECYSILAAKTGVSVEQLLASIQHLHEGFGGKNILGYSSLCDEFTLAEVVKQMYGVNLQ
Sequence of Mpro of HKU1 (P0C6X2 3335-3637): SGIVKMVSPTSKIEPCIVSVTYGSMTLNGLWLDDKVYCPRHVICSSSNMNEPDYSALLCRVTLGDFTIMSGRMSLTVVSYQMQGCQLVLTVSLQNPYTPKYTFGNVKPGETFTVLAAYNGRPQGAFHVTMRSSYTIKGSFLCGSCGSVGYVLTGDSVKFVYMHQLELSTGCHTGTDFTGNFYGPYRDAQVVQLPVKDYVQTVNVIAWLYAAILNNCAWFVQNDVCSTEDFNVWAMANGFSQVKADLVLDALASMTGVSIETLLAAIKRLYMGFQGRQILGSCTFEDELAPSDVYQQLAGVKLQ
Sequence of Mpro of OC43 (P0C6X6 3247-3549): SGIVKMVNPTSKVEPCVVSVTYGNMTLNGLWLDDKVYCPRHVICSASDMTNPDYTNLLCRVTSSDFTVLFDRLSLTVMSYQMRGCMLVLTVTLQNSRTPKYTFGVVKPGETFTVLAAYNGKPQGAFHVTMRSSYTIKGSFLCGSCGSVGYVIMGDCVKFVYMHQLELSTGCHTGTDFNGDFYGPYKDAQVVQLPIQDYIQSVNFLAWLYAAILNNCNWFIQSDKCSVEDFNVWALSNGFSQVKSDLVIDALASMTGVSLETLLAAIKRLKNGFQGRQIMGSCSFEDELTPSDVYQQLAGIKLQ

SMILES | half-life [1] [h] | pIC50 [2] | pIC50 [3] | pIC50 [4] | pIC50 [5] | pIC50 [6] | pIC50 [7]
Cn1cnc(Cn2c(=O)[nH]/c(=N\c3cc4cn(C)nc4cc3Cl)n(Cc3cc(F)c(F)cc3F)c2=O)n1 [Ensitrelvir, ensitrelvir] | 2.4 |  |  |  |  |  | 
CC(C)CC(NC(=O)OCc1ccccc1)C(=O)NC(CC1CCNC1=O)C(O)S(=O)(=O)O (centres unmarked) [GC376] |  | 7.14 | 6.36 |  |  |  | 
O=C(NC1CCCC1)C(=O)[C@H](C[C@@H]1CCNC1=O)NC(=O)[C@@H]1[C@H]2CCC[C@H]2CN1C(=O)[C@@H](NC(=O)C(F)(F)F)C1CCCCC1 [Leritrelvir, leritrelvir] | 4.8 | 7.28 | 6.57 | 7.27 | 6.02 | 7.00 | 7.14
CC(C)(C)[C@H](NC(=O)C(F)(F)F)C(=O)N1C[C@H]2[C@@H]([C@H]1C(=O)N[C@H](C#N)C[C@@H]1CCNC1=O)C2(C)C [Nirmatrelvir, nirmatrelvir] | 0.5 |  |  |  |  |  | 
